According to PubChem BioAssay AID687005 (Broad Institute, 2013):
“And” between values parts separate entries of the source, which are not always exact repeats. Identical values can stand only once. Records with an inconclusive call do not appear. The source made the active and inactive calls.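 Rule for the calls: active = Compounds that reduce signal, with fitted half-maximal dose at or under twice the top valid tested dose; inconclusive = Poor fit, or flat curve losing 30 to 70% of signal; inactive = Potency past limit, flat within 30%, or opposite direction.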

Legend:
[1] = system: HEK293T viability, ATP luminescence (CellTiter-Glo), 48 h; test: viability loss in HEK293T cells – cell-based, ATP luminescence, cherry-pick samples, cytotoxicity control, dose response (AID 687005)
[2] = as above; conditions: HEK293T viability, ATP luminescence (CellTiter-Glo), 48 h

Row | SMILES | activity change, negative = cytotoxicity ([2]; at 26 µM (top of the series)) | other results
1 | COC(=O)C1=C(C)N(Cc2ccccc2)C(=S)NC1c1cccc(OC)c1 (stereo not given) |  | AC50 [1]: 13.1 µM and 4.84 µM
2 | COc1ccc(C(=O)NC(=S)Nc2cccc(Cl)c2N2CCOCC2)cc1[N+](=O)[O-] |  | AC50 [1]: 25.1 µM and 6.55 µM
3 | Cc1c(C(=O)NC(=S)Nc2ccccc2N2CCCC2)cccc1[N+](=O)[O-] | -4.96% (inactive) | 
4 | O=C(Nc1cccc(F)c1)N[C@H]1CC[C@@H](CCNS(=O)(=O)c2cccc(Cl)c2)O[C@@H]1CO | -36.3% (inactive) | 
5 | CCNC(=O)C[C@H]1CC[C@H](NC(=O)NC2CCCCC2)[C@@H](CO)O1 | -1.55% (inactive) | 
6 | C[C@H](O)C#Cc1cnc2c(c1)C(=O)N([C@@H](C)CO)C[C@@H](C)[C@@H](CN(C)C(=O)Cc1ccncc1)O2 | 0.451% (inactive) | 
7 | COc1ccc(-c2cnc3c(c2)C(=O)N([C@@H](C)CO)C[C@H](C)[C@@H](CN(C)S(C)(=O)=O)O3)cc1 | -11.2% (inactive) | 
8 | Fc1ccccc1NC(=S)NCCc1cccc(Cl)c1 | 1.09% (inactive) | 
9 | CCC(=O)N1[C@H](CN(C)C(C)=O)[C@@H](c2ccc(C3=CCCCC3)cc2)[C@@H]1CO | -18.9% (inactive) | 
10 | C[C@H]1CN([C@@H](C)CO)C(=O)c2cc(NC(=O)Nc3ccc(F)cc3)ccc2O[C@@H]1CN(C)S(C)(=O)=O |  | activity change, negative = cytotoxicity ([2]; at 23.5 µM (top of the series)): 2.53% (inactive)
11 | COC(=O)C1=C(C)N(Cc2ccccc2)C(=S)N[C@H]1c1cccc(C(F)(F)F)c1 | -25.6% (inactive) | 
12 | C[C@@H]1CN([C@@H](C)CO)C(=O)CCCn2cc(nn2)CO[C@@H]1CN(C)Cc1ccc2c(c1)OCO2 |  | activity change, negative = cytotoxicity ([2]; at 23.5 µM (top of the series)): -1.87% (inactive)
13 | CO[C@@H]1CN(C)C(=O)c2cc(NS(=O)(=O)c3cccc(C)c3)ccc2OC[C@@H](C)NC[C@H]1C | 4.92% (inactive) | 
14 | CCC(=O)N1[C@H](C(=O)Nc2ccccc2)[C@@H](CO)[C@@H]2Cn3c(ccc(-c4ccncc4)c3=O)[C@@H]21 | 24.7% (inactive) | 
15 | COCC#Cc1cnc2c(c1)C(=O)N([C@H](C)CO)C[C@H](C)[C@H](CN(C)C(=O)C1CC1)O2 | -5.58% (inactive) | 
16 | C[C@H]1CN([C@@H](C)CO)C(=O)c2cc(-c3ccccc3)cnc2O[C@@H]1CN(C)C(=O)c1ccccn1 | 19% (inactive) | 
17 | CCCN(C)C[C@@H]1OCCCC[C@H](C)Oc2ccc(NS(=O)(=O)c3ccc(C)cc3)cc2C(=O)N([C@H](C)CO)C[C@@H]1C | 37.3% (inactive) | 
18 | C[C@@H]1CCCCO[C@H](CN(C)C(=O)c2ccncc2)[C@H](C)CN([C@H](C)CO)C(=O)c2cc(NC(=O)CCC(F)(F)F)ccc2O1 | -23.2% (inactive) | 
19 | Cc1ccccc1S(=O)(=O)N[C@@H]1CC[C@H](CCNS(=O)(=O)c2cccc(F)c2)O[C@H]1CO | -17.7% (inactive) | 
20 | CC(=O)NC[C@H]1[C@@H](c2ccc(C3=CCCC3)cc2)[C@@H](CO)N1C(=O)NC(C)C | -31.1% (inactive) | 
21 | C[C@@H]1CN([C@@H](C)CO)C(=O)CCCn2nncc2CO[C@H]1CN(C)Cc1cccc(C(F)(F)F)c1 | -26.6% (inactive) | 
22 | O=C([C@@H]1[C@@H](CO)[C@@H]2Cn3c(cccc3=O)[C@@H]2N1CCC(F)(F)F)N1CCCCC1 | 1.78% (inactive) | 
23 | COCCNC(=O)C[C@@H]1C[C@H]2c3cc(NC(=O)C4CCC4)ccc3O[C@H]2[C@@H](CO)O1 | 3.65% (inactive) | 

Row | SMILES | activity change, negative = cytotoxicity ([2]; at 26 µM (top of the series)) | other results
24 | Cc1cc(C)c(NC(=O)C2CCCN2CCO)c(C)c1 (stereo not given) | -10.1% (inactive) | 
25 | CCCC(C)(C)C(=O)N1CCC1(C)C(=O)Nc1ccc(C)cc1 (stereo not given) |  | activity change, negative = cytotoxicity ([2]; at 38 µM (top of the series)): -11.3% (inactive)
26 | CC(=O)N1[C@@H]2CN(S(=O)(=O)c3ccccc3F)c3ccccc3[C@@H]2[C@@H]1CO | 5.73% (inactive) | 
27 | COc1ccccc1C(=O)Nc1ccc2c(c1)OC[C@H](C)N(C(C)=O)C[C@H](C)[C@H](OC)CN(C)C2=O | -41.7% (inactive) | 
28 | COc1ccc(CNC(=S)NCc2ccc(OC(C)C)cc2)cc1 | 19.2% (inactive) | 
29 | Cc1ccc(S(=O)(=O)N(C)C[C@H]2Oc3c(cccc3N(C)C)C(=O)N([C@@H](C)CO)C[C@H]2C)cc1 | -16.9% (inactive) | 
30 | CCOC(=O)CSc1ncnc2c1cnn2-c1ccc(Cl)cc1 | 0.015% (inactive) | 
31 | C/C=C/c1cnc2c(c1)C(=O)N([C@H](C)CO)C[C@@H](C)[C@@H](CN(C)C(=O)C1CCCCC1)O2 | 38.1% (inactive) | 
32 | O=C(CSc1ncnc2c1cnn2-c1ccccc1)Nc1ccc2c(c1)OCO2 | 2.1% (inactive) | 
33 | CN(C)CCCn1c(=O)n(C2CCCCC2)c(=O)c2c3c(sc21)CCCCC3 | 50.5% (inactive) | 
34 | COc1cccc(NC(=S)N2CCC(Cc3ccccc3)CC2)c1 | 15.7% (inactive) | 
35 | CN1c2ccc(-c3ccc(F)cc3)cc2[C@H]2[C@H](CCN2S(=O)(=O)c2cccc(F)c2)[C@H]1CO |  | activity change, negative = cytotoxicity ([2]; at 23.5 µM (top of the series)): -32.1% (inactive)
36 | CN1C(=O)c2cc(NS(C)(=O)=O)ccc2OC[C@@H]2O[C@@H](CC(=O)O)CC[C@H]21 | 4.2% (inactive) | 
37 | CCc1ccc(NC(=O)[C@H](C)NC(=O)C2CCN(C(=O)[C@@H](N)C(C)C)CC2)cc1 | -17.1% (inactive) | 
38 | COc1cccc(-c2cn(CC[C@@H]3CC[C@@H](NC(C)=O)[C@H](CO)O3)nn2)c1 | 53.3% (inactive) | 
39 | Cc1noc(C)c1S(=O)(=O)Nc1ccc2c(c1)CC(=O)N([C@@H](C)CO)C[C@H](C)[C@@H](CN(C)S(=O)(=O)c1cn(C)cn1)O2 | 50.4% (inactive) | 
40 | COCCN1C(=S)N[C@@H](c2ccccc2)C(C(=O)OC)=C1C |  | activity change, negative = cytotoxicity ([2]; at 30 µM (top of the series)): 28.9% (inactive)
41 | Cc1ccc(NC(=O)C2(C)CCN2C(=O)CC2CCCC2)cc1 (stereo not given) |  | activity change, negative = cytotoxicity ([2]; at 38 µM (top of the series)): -16.5% (inactive)
42 | CC(C)(C)SCCNC(=O)CN(c1ccccc1)S(=O)(=O)c1ccc(F)cc1 | -6.34% (inactive) | 
43 | O=C(C[C@H]1CC[C@H]2[C@@H](COC[C@@H](O)CN2C(=O)c2ccc(F)cc2)O1)N1CCOCC1 | -14.1% (inactive) | 
44 | O=C(CN(c1ccc(F)cc1)S(=O)(=O)c1ccccc1)N1CCOCC1 | -20% (inactive) | 
45 | C[C@H]1CN([C@@H](C)CO)C(=O)c2cc(C#Cc3ccccn3)cnc2O[C@H]1CN(C)Cc1ccncc1 | 38.4% (inactive) | 
